Assays:
[1] = molecular target: T1, L-plastin (PG772) (Homo sapiens, UniProt P13796); test: Isolation of proteins binding 3H-triptolide in Jurkat cells; details: 3H-labeled compound incubated with Jurkat cells
T1 construct: Jurkat cells from expanding cultures were labeled with; endogenous in cells; host or cells: Jurkat
Experimental: Triptolide target molecules were isolated and identified by purification and identification of molecules that bind ^3H-triptolide. Jurkat cells from expanding cultures were labeled with ^3H-triptolide by cultivation at 37° C. with 5% CO2 for a period of time between a few hours and overnight (usually 6-7 hours) and harvested by centrifugation and washing in ice-cold phosphate buffered saline. The cells (usually 1-3×10^6/ml) were generally labeled with ^3H-triptolide to a final concentration of 35 nM (100 μCi/200 ml of medium). […]
(§1) The cells were extracted with M-per buffer (Pierce) and homogenized in presence of a protease inhibitor cocktail, sometimes including other reagents such as deoxyribonuclease (DNase). […] When the extracts components were found not to be sufficiently purified, enriched or reduced in number, 2D gel electrophoresis was employed, followed by fluorography for ^3H-associated radioactivity detection, and MALDI/MS of the corresponding peptides (after proteolysis) and peptide fingerprinting. […]
MALDI-MS peptide fingerprinting analysis identified HSP 90β (PG771) in fraction #4 and L-plastin (PG772) in fraction #9. […] A positive spot on the film (fluorographically positive, therefore positive for ^3H-associated radioactivity) was seen near the 29 kDa protein marker. […]

[2] = test system: Phosphatidyl Inositol 3 Kinase—Class II (PG776); test: as above; design: species or system human; details: 3H-labeled Jurkat cell extract
Experimental: (§2) Triptolide target molecules were isolated and identified by purification and identification of molecules that bind ^3H-triptolide. Jurkat cells from expanding cultures were labeled with ^3H-triptolide by cultivation at 37° C. with 5% CO2 for a period of time between a few hours and overnight (usually 6-7 hours) and harvested by centrifugation and washing in ice-cold phosphate buffered saline. The cells (usually 1-3×10^6/ml) were generally labeled with ^3H-triptolide to a final concentration of 35 nM (100 μCi/200 ml of medium). Collected cell pellets were pooled, and the cells were either extracted and subjected to separation and purification at that time, or were frozen and stored at −20° C. as pellets for extraction and investigation at a later time.
as §1

[3] = molecular target: T2, hypothetical protein FLJ20297 (PG777) (Homo sapiens, UniProt Q9NXE4); test: as above; details: 3H-labeled Jurkat cell extract
T2 construct: endogenous in cells; host or cells: Jurkat
Experimental: as §2, §1

[4] = molecular target: T3, Human Serine/Threonine Protein Phosphatase 2A 130 KDa regulatory subunit, PP2A (PG789) (Homo sapiens, UniProt Q06190); test: as above; details: 3H-labeled Jurkat cell extract
T3 construct: endogenous in cells; host or cells: Jurkat
Experimental: as §2, §1

[5] = test system: NF-κB; details: cited from earlier work
[6] = test system: p53 pathway; details: cited from earlier work
[7] = test system: microglia; details: cited from earlier work
[8] = test system: human T cell lymphoma (Jurkat) cells; details: cited from earlier work

T1 sequence (P13796 whole entry): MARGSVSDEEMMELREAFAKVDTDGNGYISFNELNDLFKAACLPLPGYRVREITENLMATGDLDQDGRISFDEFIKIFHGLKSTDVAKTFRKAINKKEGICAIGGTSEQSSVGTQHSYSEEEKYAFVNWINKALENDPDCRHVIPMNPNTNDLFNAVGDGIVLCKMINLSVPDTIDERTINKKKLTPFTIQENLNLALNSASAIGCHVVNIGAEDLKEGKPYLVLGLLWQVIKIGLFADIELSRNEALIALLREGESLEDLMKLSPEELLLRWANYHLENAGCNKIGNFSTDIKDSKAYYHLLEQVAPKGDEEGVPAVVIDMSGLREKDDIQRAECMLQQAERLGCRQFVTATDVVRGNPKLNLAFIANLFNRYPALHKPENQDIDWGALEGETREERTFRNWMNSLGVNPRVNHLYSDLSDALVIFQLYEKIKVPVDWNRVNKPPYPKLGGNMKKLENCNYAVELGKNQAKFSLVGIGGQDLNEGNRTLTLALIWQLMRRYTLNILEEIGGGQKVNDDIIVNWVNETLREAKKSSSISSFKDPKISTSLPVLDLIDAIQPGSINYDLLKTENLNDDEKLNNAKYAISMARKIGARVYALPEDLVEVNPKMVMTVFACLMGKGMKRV
T3 sequence (Q06190 whole entry): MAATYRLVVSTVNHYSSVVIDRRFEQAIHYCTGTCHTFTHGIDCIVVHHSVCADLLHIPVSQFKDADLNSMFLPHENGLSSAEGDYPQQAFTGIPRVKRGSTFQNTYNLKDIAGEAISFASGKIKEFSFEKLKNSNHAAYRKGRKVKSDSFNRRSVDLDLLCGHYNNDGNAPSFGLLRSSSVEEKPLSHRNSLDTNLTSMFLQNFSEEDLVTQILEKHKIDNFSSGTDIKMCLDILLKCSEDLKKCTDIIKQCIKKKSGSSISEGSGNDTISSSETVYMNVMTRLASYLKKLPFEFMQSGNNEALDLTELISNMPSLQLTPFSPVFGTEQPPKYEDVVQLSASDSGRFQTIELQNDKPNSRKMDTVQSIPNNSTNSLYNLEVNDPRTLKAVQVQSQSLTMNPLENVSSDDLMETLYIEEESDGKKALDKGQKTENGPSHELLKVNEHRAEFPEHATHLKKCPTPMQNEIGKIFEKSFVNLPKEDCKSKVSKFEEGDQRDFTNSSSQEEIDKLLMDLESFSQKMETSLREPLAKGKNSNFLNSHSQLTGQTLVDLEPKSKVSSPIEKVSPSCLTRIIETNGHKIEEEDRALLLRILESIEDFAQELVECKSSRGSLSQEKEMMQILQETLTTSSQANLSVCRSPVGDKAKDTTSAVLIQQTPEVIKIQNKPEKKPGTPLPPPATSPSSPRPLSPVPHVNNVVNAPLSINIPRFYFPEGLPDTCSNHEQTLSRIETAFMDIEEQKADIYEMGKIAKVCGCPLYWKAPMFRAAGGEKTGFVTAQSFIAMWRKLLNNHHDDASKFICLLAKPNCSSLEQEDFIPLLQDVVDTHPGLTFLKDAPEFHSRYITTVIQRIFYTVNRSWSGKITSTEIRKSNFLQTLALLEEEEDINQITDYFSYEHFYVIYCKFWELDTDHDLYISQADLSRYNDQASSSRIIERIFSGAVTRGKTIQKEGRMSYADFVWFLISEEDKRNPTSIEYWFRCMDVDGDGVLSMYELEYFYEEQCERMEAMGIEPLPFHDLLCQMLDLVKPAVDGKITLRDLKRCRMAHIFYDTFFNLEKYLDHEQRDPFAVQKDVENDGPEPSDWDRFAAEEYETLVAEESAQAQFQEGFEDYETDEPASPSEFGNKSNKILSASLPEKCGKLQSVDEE
T2 sequence (Q9NXE4 whole entry): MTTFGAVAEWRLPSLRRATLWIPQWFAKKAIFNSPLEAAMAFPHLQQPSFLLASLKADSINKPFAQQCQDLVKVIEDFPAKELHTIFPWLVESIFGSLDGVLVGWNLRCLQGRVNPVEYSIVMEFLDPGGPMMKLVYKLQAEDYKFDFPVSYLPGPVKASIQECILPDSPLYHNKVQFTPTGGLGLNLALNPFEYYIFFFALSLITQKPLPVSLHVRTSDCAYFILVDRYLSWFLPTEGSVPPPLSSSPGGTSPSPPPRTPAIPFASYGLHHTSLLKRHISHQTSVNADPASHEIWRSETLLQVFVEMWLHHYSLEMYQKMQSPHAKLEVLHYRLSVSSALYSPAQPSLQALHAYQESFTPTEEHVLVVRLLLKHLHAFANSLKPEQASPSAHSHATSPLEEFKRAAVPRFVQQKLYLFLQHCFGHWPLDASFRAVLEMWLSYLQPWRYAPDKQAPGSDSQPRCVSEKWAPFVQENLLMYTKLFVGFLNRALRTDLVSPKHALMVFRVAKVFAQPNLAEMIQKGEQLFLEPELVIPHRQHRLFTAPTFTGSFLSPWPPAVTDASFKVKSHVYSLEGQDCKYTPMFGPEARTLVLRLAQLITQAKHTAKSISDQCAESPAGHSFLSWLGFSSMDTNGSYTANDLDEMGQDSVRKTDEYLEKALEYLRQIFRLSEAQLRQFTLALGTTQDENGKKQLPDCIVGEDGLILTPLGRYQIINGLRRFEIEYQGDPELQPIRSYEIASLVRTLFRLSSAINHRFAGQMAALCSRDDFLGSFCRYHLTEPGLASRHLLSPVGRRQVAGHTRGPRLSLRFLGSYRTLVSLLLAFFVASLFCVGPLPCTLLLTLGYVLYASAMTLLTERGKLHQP

In the case of `CC(C)[C@]12O[C@H]1[C@@H]1O[C@]13[C@]1(O[C@H]1C[C@H]1C4=C(CC[C@@]13C)C(=O)OC4)[C@@H]2O` [triptolide], the “3H-associated protein identified as triptolide target: L-plastin” value [1] was “identified”, the “3H-associated protein identified as triptolide target: PI 3 Kinase Class II” value [2] was “identification” and the “3H-associated protein identified as triptolide target: FLJ20297” value [3] was “identification”. The “3H-associated protein identified as triptolide target: PP2A 130 KDa regulatory subunit” value [4] was “identified”, the NF-κB activation [5] was “inhibit NF-κB activation” and the “cell cycle arrest induced by p21 after p53 activation” value [6] was “inhibiting the cell cycle arrest induced by p21 after p53 activation”. The “LPS-activated microglial activity (nitrite accumulation, TNF-α and IL-1β release)” value [7] was “powerful inhibitory influence” and the cytotoxicity [8] was “cytotoxicity in human T cell lymphoma (Jurkat) cells”.

Reference: patent US8617906B2, “Identification and screening of triptolide target molecules” (priority 2004, dated 2013)
